Experimental data published in the supplement of paper PMC10627819.

Assays:
[1] = test system: B. subtilis 168; experiment: fitness (endpoint OD595 vs no drug) (fraction); higher = more growth; settings: main component drawn
Outline: (§1)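 Fitness expresses the optical density reached at the stationary-phase transition as a fraction of the robust mean of no-drug control wells. It is capped at 1. Measurements were OD595 every 30 min for 14 h at 37 °C after inoculation of 384-well plates at OD595 0.01 (30 µl, or 55 µl for S. pneumoniae), minus the first reading.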

[2] = test system: S. aureus Newman; experiment: as above
Outline: as §1

[3] = test system: B. subtilis 168; experiment: Bliss interaction score (quartile over a dose matrix) (fitness difference); higher = more antagonism (negative = synergy)
Outline: (§2)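 Each OD595 reading at entry into stationary phase was scaled to the robust mean of the untreated wells on its plate, with a ceiling of 1. These ratios define fitness, and single-drug fitness was inferred from combinations. The Bliss score compares observed fitness with the product-based expectation and is reported as quartiles across all replicate types, technical, biological and donor/recipient.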

[4] = test system: S. aureus DSM 20231; experiment: as above
Outline: as §2

[5] = test system: S. aureus Newman; experiment: as above
Outline: as §2

[6] = test system: S. pneumoniae D39V; experiment: as above
Outline: as §2

[7] = test system: S. pneumoniae D39V; experiment: fitness (endpoint OD595 vs no drug) (fraction); higher = more growth
Outline: as §1
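Wherever Bliss interaction score (quartile over a dose matrix) is given: first quartile when negative (synergy) and third quartile when positive (antagonism).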
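Wherever fitness (endpoint OD595 vs no drug) is given: OD595 on entry to stationary phase over no-drug wells; at most 1.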

CC[C@H](C)[C@H](N)C1=N[C@H](C(=O)N[C@@H](CC(C)C)C(=O)N[C@H](CCC(=O)O)C(=O)N[C@H](C(=O)N[C@H]2CCCCNC(=O)[C@H](CC(N)=O)NC(=O)[C@@H](CC(=O)O)NC(=O)[C@H](Cc3cnc[nH]3)NC(=O)[C@@H](Cc3ccccc3)NC(=O)[C@H]([C@@H](C)CC)NC(=O)[C@@H](CCCN)NC2=O)[C@@H](C)CC)CS1 [Bacitracin] + COc1ccc(C[C@H](N)C(=O)N[C@H]2[C@@H](O)[C@H](n3cnc4c(N(C)C)ncnc43)O[C@@H]2CO)cc1 [Puromycin]
fitness, [1]
Settings | first compound 37.5 µg/mL | first compound 75 µg/mL | first compound 150 µg/mL
partner 0.39 µg/mL | 0.901 | 0.875 | 0.793
partner 0.78 µg/mL | 0.959 | 0.958 | –
partner 1.56 µg/mL | 0.903 | 0.881 | –

fitness, [2], main component drawn
Settings | first compound 18.75 µg/mL | first compound 37.5 µg/mL | first compound 75 µg/mL
partner 0.39 µg/mL | 0.693 | – | 0.0319
partner 0.78 µg/mL | 0.687 | 0.197 | 0.0272
partner 1.56 µg/mL | 0.685 | 0.0934 | 0.0307

main component drawn
Settings | Bliss interaction score
[3] | 0.0815
[4] | -0.0671
[5] | -0.0486
[6] | 0.048

CC[C@H](C)[C@H](N)C1=N[C@H](C(=O)N[C@@H](CC(C)C)C(=O)N[C@H](CCC(=O)O)C(=O)N[C@H](C(=O)N[C@H]2CCCCNC(=O)[C@H](CC(N)=O)NC(=O)[C@@H](CC(=O)O)NC(=O)[C@H](Cc3cnc[nH]3)NC(=O)[C@@H](Cc3ccccc3)NC(=O)[C@H]([C@@H](C)CC)NC(=O)[C@@H](CCCN)NC2=O)[C@@H](C)CC)CS1 [Bacitracin] + Cc1onc(-c2ccccc2)c1C(=O)N[C@@H]1C(=O)N2[C@@H]1SC(C)(C)[C@@H]2C(=O)O [Oxacillin]
fitness, [1]
Settings | partner 0.002 µg/mL | partner 0.004 µg/mL | partner 0.008 µg/mL
first compound 37.5 µg/mL | 0.958 | 0.955 | 0.924
first compound 75 µg/mL | 0.959 | 0.913 | 0.835

fitness
Settings | first compound 18.75 µg/mL | first compound 37.5 µg/mL | first compound 75 µg/mL | first compound 150 µg/mL
[1], partner 0.0078 µg/mL, one replicate | – | 0.79 | 0.778 | 0.447
[1], partner 0.0155 µg/mL, one replicate | – | 0.782 | 0.76 | 0.36
[1], partner 0.031 µg/mL, one replicate | – | 0.742 | 0.701 | 0.316
[1], partner 0.075 µg/mL, one replicate | – | 0.58 | 0.496 | 0.242
[1], partner 0.15 µg/mL, one replicate | – | 0.0238 | 0.0193 | 0.0097
[1], partner 0.3 µg/mL, one replicate | – | 0.0295 | 0.0177 | 0.0106
[2], partner 0.0156 µg/mL, main component drawn | 0.534 | 0.0937 | 0.0408 | –
[2], partner 0.0312 µg/mL, main component drawn | – | 0.0243 | 0.0443 | –
[2], partner 0.0625 µg/mL, main component drawn | 0.0815 | 0.0177 | 0.0488 | –

main component drawn
Settings | Bliss interaction score
[3] | -0.0456
[4] | 0.0803
[5] | -0.118
[6] | -0.107

CC[C@H](C)[C@H](N)C1=N[C@H](C(=O)N[C@@H](CC(C)C)C(=O)N[C@H](CCC(=O)O)C(=O)N[C@H](C(=O)N[C@H]2CCCCNC(=O)[C@H](CC(N)=O)NC(=O)[C@@H](CC(=O)O)NC(=O)[C@H](Cc3cnc[nH]3)NC(=O)[C@@H](Cc3ccccc3)NC(=O)[C@H]([C@@H](C)CC)NC(=O)[C@@H](CCCN)NC2=O)[C@@H](C)CC)CS1 [Bacitracin] + CC(C1CCC(C(O1)OC2C(CC(C(C2O)OC3C(C(C(CO3)(C)O)NC)O)N)N)N)NC [Gentamicin]
fitness, [1]
Settings | first compound 37.5 µg/mL | first compound 75 µg/mL | first compound 150 µg/mL
partner 0.125 µg/mL | – | – | 0.0432
partner 0.25 µg/mL | 0.0865 | 0.0452 | 0.0472

fitness, [2], main component drawn
Settings | partner 0.375 µg/mL | partner 0.5 µg/mL | partner 0.75 µg/mL | partner 1 µg/mL | partner 1.5 µg/mL | partner 2 µg/mL
first compound 18.75 µg/mL | 0.591 | 0.759 | 0.461 | 0.803 | – | 0.842
first compound 37.5 µg/mL | 0.122 | 0.625 | 0.137 | – | 0.163 | –
first compound 75 µg/mL | 0.0738 | 0.0785 | 0.0623 | 0.0125 | 0.0666 | 0.0163

main component drawn
Settings | Bliss interaction score
[3] | -0.298
[4] | -0.0565
[5] | 0.102
[6] | -0.149

CC[C@H](C)[C@H](N)C1=N[C@H](C(=O)N[C@@H](CC(C)C)C(=O)N[C@H](CCC(=O)O)C(=O)N[C@H](C(=O)N[C@H]2CCCCNC(=O)[C@H](CC(N)=O)NC(=O)[C@@H](CC(=O)O)NC(=O)[C@H](Cc3cnc[nH]3)NC(=O)[C@@H](Cc3ccccc3)NC(=O)[C@H]([C@@H](C)CC)NC(=O)[C@@H](CCCN)NC2=O)[C@@H](C)CC)CS1 [Bacitracin] + CC1=C(C(=O)O)N2C(=O)[C@@H](NC(=O)[C@H](N)c3ccccc3)[C@H]2SC1 [Cephalexin]
fitness, [1]
Settings | first compound 37.5 µg/mL | first compound 75 µg/mL | first compound 150 µg/mL
partner 0.125 µg/mL | 0.922 | 0.884 | 0.72
partner 0.25 µg/mL | 0.824 | 0.869 | –
partner 0.5 µg/mL | 0.838 | 0.904 | –

fitness
Settings | first compound 18.75 µg/mL | first compound 37.5 µg/mL | first compound 75 µg/mL | first compound 150 µg/mL
[1], partner 1 µg/mL, one replicate | – | 0.874 | 0.886 | 0.53
[2], partner 0.25 µg/mL, main component drawn | 0.798 | – | 0.0499 | –
[2], partner 0.5 µg/mL, main component drawn | 0.785 | – | 0.0405 | –
[2], partner 1 µg/mL, main component drawn | 0.791 | – | 0.045 | –

main component drawn
Settings | Bliss interaction score
[3] | 0.0854
[4] | 0.0487
[5] | 0.129
[6] | -0.0987

CN[C@@H]1[C@H](O[C@H]2[C@H](O[C@H]3[C@H](O)[C@@H](O)[C@H](N=C(N)N)[C@@H](O)[C@@H]3N=C(N)N)O[C@@H](C)[C@]2(O)C=O)O[C@@H](CO)[C@H](O)[C@H]1O [Streptomycin] + Cn1nnc(-c2ccc(-c3ccc(N4C[C@H](CO)OC4=O)cc3F)cn2)n1 [Tedizolid]
fitness
Settings | partner 0.03125 µg/mL | partner 0.0625 µg/mL | partner 0.125 µg/mL | partner 0.25 µg/mL | partner 0.5 µg/mL
[2], first compound 1 µg/mL | – | 0.928 | 0.767 | – | –
[7], first compound 2 µg/mL | 0.896 | 0.952 | 0.811 | – | –
[7], first compound 4 µg/mL | 0.898 | 0.886 | 0.788 | 0.739 | 0.336
[7], first compound 8 µg/mL | 0.893 | 0.912 | 0.829 | 0.732 | 0.353

fitness, [7], one replicate
Settings | partner 0.125 µg/mL | partner 0.25 µg/mL | partner 0.5 µg/mL
first compound 2 µg/mL | – | 0.748 | 0.373
first compound 16 µg/mL | 0.695 | 0.531 | 0.236

Settings | Bliss interaction score
[3] | 0.189
[4] | 0.155
[5] | -0.188
[6] | -0.057

CC[C@H](C)[C@H](N)C1=N[C@H](C(=O)N[C@@H](CC(C)C)C(=O)N[C@H](CCC(=O)O)C(=O)N[C@H](C(=O)N[C@H]2CCCCNC(=O)[C@H](CC(N)=O)NC(=O)[C@@H](CC(=O)O)NC(=O)[C@H](Cc3cnc[nH]3)NC(=O)[C@@H](Cc3ccccc3)NC(=O)[C@H]([C@@H](C)CC)NC(=O)[C@@H](CCCN)NC2=O)[C@@H](C)CC)CS1 [Bacitracin] + CN1C2=CC=CC=C2N=C3C1=CC=CC3=O [Pyocyanin]
fitness, [1]
Settings | first compound 37.5 µg/mL | first compound 75 µg/mL | first compound 150 µg/mL
partner 1.25 µg/mL | 0.9 | 0.931 | 0.8
partner 2.5 µg/mL | 0.839 | 0.853 | 0.682
partner 5 µg/mL | 0.614 | 0.594 | 0.419

fitness, [2], main component drawn
Settings | first compound 18.75 µg/mL | first compound 37.5 µg/mL | first compound 75 µg/mL
partner 1.25 µg/mL | 0.574 | 0.208 | 0.04
partner 2.5 µg/mL | 0.496 | 0.18 | 0.0276
partner 5 µg/mL | 0.281 | 0.148 | 0.0716

main component drawn
Settings | Bliss interaction score
[3] | 0.0566
[4] | 0.0748
[5] | -0.0473
[6] | 0.0487
